Experimental data from PubChem BioAssay AID2060506 (Molecular Pharmacology Branch, DTP, NCI, 2025).
Values joined by “and” are separate entries in the source; they are usually repeats but may differ in a detail not shown here. Equal entries are not always repeated. Blank lines part the entries; values can stand above or below the compound they belong to.

System: 598228-144-R-J1-PDC complex spheroid viability
Assay: Anticancer human tumor 598228-144-R-J1-PDC patient-derived serous endometrial adenocarcinoma cell line growth inhibition [GQUAD]
Settings: for viability, T/C: stronger effect = lower value
Excerpt: DNA G-quadruplex Stabilizer Agents in Combinations in Complex Spheroids
A high-throughput screen of multi-cell type tumor spheroids was designed to identify active combinations of DNA G-quadruplex stabilizer agents and targeted small molecules. Complex spheroids include a stromal component modeled by human endothelial cells (HUVEC) and fibroblasts modeled by human mesenchymal stem cells (MSCs). The concentration ranges selected for each drug and investigational agent were based upon clinically achievable concentrations if the clinical Cmax of the agent was known.
Compounds. The drugs and investigational agents: pidnarulex (CX-5461; NSC782164), APTO-253 (NSC789042), BRACO-19 (NSC847499), peposertib (NSC802822), ceralasertib (NSC780249), elimusertib (NSC800525), camonsertib (NSC841442), AZD-1390 (NSC803789), olaparib (NSC753686), talazoparib (NSC767125), ART-558 (NSC835418), sotorasib (NSC818433), MRTX-1133 (NSC836407), SN-38 (NSC673596), topotecan (NSC609699), etoposide (NSC141540), doxorubicin (NSC123127), gemcitabine (NSC613327), 5-fluorouracil (NSC19893), paclitaxel (NSC125973), vemurafenib (NSC761431), panobinostat (NSC761190), R-306465 (JNJ-16241199; NSC773264), adavosertib (NSC754352), TP-3654 (NSC805149), carboplatin (NSC241240), KSQ-4279 (NSC840948), and staurosporine (NSC755774) were obtained from the National Cancer Institute (NCI) Developmental Therapeutics Program Chemical Repository (34). The FDA-approved anticancer drug set is available from the NCI Developmental Therapeutics Program. […] The stock solutions were prepared in dimethyl sulfoxide (DMSO, Sigma-Aldrich, St. Louis, MO, cat. D2650) at 800-fold the tested concentration and stored at -70 degrees C prior to their use. All drugs and investigational agents were tested over a range starting from a high concentration at or near the clinical Cmax and decreasing in half-log increments. If the clinical Cmax for an agent had not been determined, the highest concentration tested was 10 microM.
2.3 Cell Culture. All cells were maintained in an incubator at 37 degrees C and 5% CO2 with 95% humidity. The PDC lines were cultured according to standard operating procedures established by the NCI PDMR. All PDCs were thawed and cultured in Matrigel-coated flasks prepared with a working solution of 1X Ham's F-12 nutrient mix, without supplementation (Invitrogen, cat. 11765054), 100 U/mL penicillin-streptomycin (Invitrogen, cat. 15140122), and 2.5% Matrigel (Corning Inc., cat. 354248) for the first three passages. The 857933-349-R-J2-PDC line was cultured in 6C/Colon 1B media, which includes advanced DMEM/F-12 (Thermo Fisher Scientific, cat. 12634028), 10 mM HEPES (Thermo Fisher Scientific, cat. 15630080), 1X GlutaMAX supplement (Thermo Fisher Scientific, cat. 35050061), 0.1 mg/mL primocin (InvivoGen, cat. ant-pm-2), 10% defined fetal bovine serum, heat inactivated (HyClone Laboratories Inc., cat. SH30070.03HI), 50% L-WRN conditioned media (ATCC, cat. CRL-3276), 1.25 mM N-Acetyl-L-cysteine (Sigma-Aldrich, cat. A9165), 10 mM nicotinamide (Sigma-Aldrich, cat. N0636), 1X B-27 supplement (Thermo Fisher Scientific, cat. 17504044), 1X N-2 supplement (Thermo Fisher Scientific, cat. 17502048), 10 microM Y-27632 dihydrochloride (Tocris Bioscience, cat. 1254), and 50 ng/mL human EGF recombinant protein (Thermo Fisher Scientific, cat. PHG0311). The 485176-168-R4-J1-PDC line was cultured in Panc media, which includes all 6C/Colon 1B media components plus 100 ng/mL human FGF-10 (Thermo Fisher Scientific, cat. 100-26), 500 nM SB-431542 (Selleckchem, cat. S1067), and gastrin (Tocris, cat. 3006).
[…]
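Further: spheroids exposed to the agents for one week before reading.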
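Wherever viability, T/C is given: percent of vehicle DMSO control viability so 100% = untreated growth.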

Structure (SMILES): C=CCn1c(=O)c2cnc(Nc3ccc(N4CCN(C)CC4)cc3)nc2n1-c1cccc(C(C)(C)O)n1
- viability, T/C (compound 0.0316 µM): 105% and 84.5% and 97.9%
- viability, T/C (compound 0.1 µM): 81.6% and 94.9% and 101%
- viability, T/C (compound 0.316 µM): 83% and 52.6% and 63%
- viability, T/C (compound 1 µM): 46.9% and 51.9% and 42%
- viability, T/C (compound 3.16 µM): 50.9% and 46.4% and 62.5%
- viability, T/C (compound 10 µM): 45.4% and 49.7% and 66.2%

Structure (SMILES): CC(=O)O[C@H]1C(=O)[C@@]2(C)[C@H]([C@H](OC(=O)c3ccccc3)[C@]3(O)C[C@H](OC(=O)[C@H](O)[C@@H](NC(=O)c4ccccc4)c4ccccc4)C(C)=C1C3(C)C)[C@]1(OC(C)=O)CO[C@@H]1C[C@@H]2O
- viability, T/C (compound 0.0316 µM): 57.9% and 47.5% and 53%
- viability, T/C (compound 0.1 µM): 41.1% and 46.1% and 48.6%
- viability, T/C (compound 0.316 µM): 52.3% and 37.7% and 45%
- viability, T/C (compound 1 µM): 42.3% and 36.8% and 38.9%
- viability, T/C (compound 3.16 µM): 47.5% (2×) and 40.5%
- viability, T/C (compound 10 µM): 49.1% and 43% and 39.1%
- IC50 (curve of compound): 80.4 nM and < 31.6 nM and 50.4 nM

Structure (SMILES): CC1COCCN1c1cc(C2(O)CC3CCC(C2)O3)c2cnn(-c3ccn[nH]3)c2n1 (centres undefined)
- viability, T/C (compound 0.0316 µM): 68.6% and 72.1% and 69.9%
- viability, T/C (compound 0.1 µM): 40% and 42.8% and 48.9%
- viability, T/C (compound 0.316 µM): 41.1% and 40% and 42.5%
- viability, T/C (compound 1 µM): 33% and 40.1% and 34.1%
- viability, T/C (compound 3.16 µM): 22.5% and 33.5% and 32.9%
- viability, T/C (compound 10 µM): 11.1% and 15% and 15.1%
- IC50 (curve of compound): 101 nM and 134 nM and 154 nM

Structure (SMILES): CC1COCCN1c1cc(C2(S(C)(=N)=O)CC2)nc(-c2ccnc3[nH]ccc23)n1 (centres undefined)
- viability, T/C (compound 0.0316 µM): 91.8% and 116% and 77.8%
- viability, T/C (compound 0.1 µM): 83.7% and 108% and 99.1%
- viability, T/C (compound 0.316 µM): 88.9% and 94.8% and 83.4%
- viability, T/C (compound 1 µM): 77.9% and 77.5% and 88.2%
- viability, T/C (compound 3.16 µM): 60.3% and 46.7% and 97.7%
- viability, T/C (compound 10 µM): 39.3% and 49.6% and 47.7%
- IC50 (curve of compound): 5530 nM and 5370 nM and 9390 nM

Structure (SMILES): CC[C@@]1(O)C(=O)OCc2c1cc1n(c2=O)Cc2cc3c(CN(C)C)c(O)ccc3nc2-1
- viability, T/C (compound 0.000999 µM): 116% and 95.5% and 102%
- viability, T/C (compound 0.00316 µM): 96.2% and 89.7% and 95.8%
- viability, T/C (compound 0.00999 µM): 128% and 70.9% and 96.4%
- viability, T/C (compound 0.0316 µM): 94.6% and 72% and 86.3%
- viability, T/C (compound 0.0999 µM): 68.6% and 55% and 64.9%
- viability, T/C (compound 0.316 µM): 68.7% and 50.2% and 51.1%
- IC50 (curve of compound): > 316 nM and 305 nM

Structure (SMILES): CCc1c2c(nc3ccc(O)cc13)-c1cc3c(c(=O)n1C2)COC(=O)[C@]3(O)CC
- viability, T/C (compound 0.000999 µM): 72.2% and 58.7% and 67.3%
- viability, T/C (compound 0.00316 µM): 58.9% and 53.5% and 66.5%
- viability, T/C (compound 0.00999 µM): 59.5% and 47.4% and 56.2%
- viability, T/C (compound 0.0316 µM): 43.9% and 44.5% and 44.3%
- viability, T/C (compound 0.0999 µM): 28.2% and 31% and 38.2%
- viability, T/C (compound 0.316 µM): 19.5% and 18.4% and 18.3%
- IC50 (curve of compound): 17.3 nM and 8.3 nM and 23.2 nM

Structure (SMILES): CN(C)c1ccc(Nc2c3ccc(NC(=O)CCN4CCCC4)cc3nc3cc(NC(=O)CCN4CCCC4)ccc23)cc1
- viability, T/C (compound 0.0316 µM): 102% [middle of 12 runs]
- viability, T/C (compound 0.1 µM): 106% [middle of 12 runs]
- viability, T/C (compound 1 µM): 101% [middle of 12 runs]
- viability, T/C (compound 3.16 µM): 99.7% [middle of 12 runs]
- viability, T/C (compound 10 µM): 90% [middle of 12 runs]
- IC50 (compound alone, run of 03/26/2024): > 10000 nM

Continued, in another order:

- IC50 (curve of compound): > 10000 nM
Structure (SMILES): C#Cc1c(F)ccc2cc(O)cc(-c3ncc4c(N5CC6CCC(C5)N6)nc(OCC56CCCN5CC(F)C6)nc4c3F)c12 (centres undefined)
- viability, T/C (compound 0.0316 µM): 103% and 107% and 96.2%
- viability, T/C (compound 0.1 µM): 98.9% and 118% and 97.6%
- viability, T/C (compound 0.316 µM): 106% (2×) and 98.1%
- viability, T/C (compound 1 µM): 100% and 101% and 92.4%
- viability, T/C (compound 3.16 µM): 96.8% and 99.4% and 96.6%
- viability, T/C (compound 10 µM): 84.1% and 105% and 83.3%

- IC50 (curve of compound): > 10000 nM
Structure (SMILES): C=CC(=O)N1CCN(c2nc(=O)n(-c3c(C)ccnc3C(C)C)c3nc(-c4c(O)cccc4F)c(F)cc23)C(C)C1 (centres undefined)
- viability, T/C (compound 0.0316 µM): 89% and 91.5% and 95%
- viability, T/C (compound 0.1 µM): 106% and 107% and 112%
- viability, T/C (compound 0.316 µM): 102% and 127% and 100%
- viability, T/C (compound 1 µM): 155% and 112% (2×)
- viability, T/C (compound 3.16 µM): 145% and 124% and 111%
- viability, T/C (compound 10 µM): 113% and 108% and 106%

- IC50 (curve of compound): 2200 nM and 1870 nM and 1730 nM
Structure (SMILES): CC(C)(O)C1CCC(Nc2ccc3ncc(-c4cccc(C(F)(F)F)c4)n3n2)CC1 (centres undefined)
- viability, T/C (compound 0.0316 µM): 112% and 97.2% and 85.6%
- viability, T/C (compound 0.1 µM): 104% and 82.3% and 99.3%
- viability, T/C (compound 0.316 µM): 99.6% and 94.8% and 96.7%
- viability, T/C (compound 1 µM): 94% and 78.5% and 75.3%
- viability, T/C (compound 3.16 µM): 28% and 26.1% and 20.6%
- viability, T/C (compound 10 µM): 31.7% and 25.3% and 24.3%

- IC50 (curve of compound): > 10000 nM
Structure (SMILES): CC(C)n1c(=O)n(C)c2cnc3cc(F)c(-c4ccc(OCCCN5CCCCC5)nc4)cc3c21
- viability, T/C (compound 0.0316 µM): 109% and 90.8% and 106%
- viability, T/C (compound 0.1 µM): 91.9% and 85.2% and 84.2%
- viability, T/C (compound 0.316 µM): 101% and 92.4% and 109%
- viability, T/C (compound 1 µM): 115% and 111% and 96.7%
- viability, T/C (compound 3.16 µM): 94.2% and 74.5% and 67.8%
- viability, T/C (compound 10 µM): 60.8% and 56.7% and 68.5%

- IC50 (curve of compound): 140 nM and 91.6 nM and 79 nM
Structure (SMILES): CC1COCCN1c1cc(-c2ccnn2C)c2ccnc(-c3ccn[nH]3)c2n1 (centres undefined)
- viability, T/C (compound 0.0316 µM): 76% and 72.5% and 81.6%
- viability, T/C (compound 0.1 µM): 52.9% and 44.2% and 42.1%
- viability, T/C (compound 0.316 µM): 37.5% and 47.8% and 36.9%
- viability, T/C (compound 1 µM): 43.9% and 35.5% and 42.2%
- viability, T/C (compound 3.16 µM): 50% and 39.5% and 40.7%
- viability, T/C (compound 10 µM): 39.6% and 33.4% and 38.9%

- IC50 (curve of compound): 8880 nM and 6560 nM and 7610 nM
Structure (SMILES): CCCS(=O)(=O)Nc1ccc(F)c(C(=O)c2c[nH]c3ncc(-c4ccc(Cl)cc4)cc23)c1F
- viability, T/C (compound 0.0316 µM): 122% and 103% and 107%
- viability, T/C (compound 0.1 µM): 93.3% and 86.4% and 114%
- viability, T/C (compound 0.316 µM): 104% and 110% and 102%
- viability, T/C (compound 1 µM): 106% and 110% and 130%
- viability, T/C (compound 3.16 µM): 100% and 90.5% and 112%
- viability, T/C (compound 10 µM): 44.2% and 26.5% and 30.6%
